Reference: patent US20200179428A1, “CYCLIC PHOSPHATE SUBSTITUTED NUCLEOSIDE DERIVATIVES AND METHODS OF USE THEREOF FOR THE TREATMENT OF VIRAL DISEASES” (priority 2016, published 2020)
pEC50: −log10 of the molar value.

Columns and labels:
[1] = Cytotoxicity MTS assay (CellTiter 96 Aqueous One Solution) in replicon cells; format: cell-based; conditions: HCV replicon cells (1b-Con1); EDU; read-out: CC50 (EDU) Range
Description: (§1) To measure cell-based anti-HCV activity of the compounds of the present invention, replicon cells (1b-Con1) are seeded at 5000 cells/well in 96-well plates one day prior to treatment with a compound of the invention. Various concentrations of a test compound of the invention in DMSO are then added to the replicon cells, with the final concentration of DMSO at 0.5% and fetal bovine serum at 10% in the assay media. Cells are harvested three days post-dosing, and the replicon RNA level is determined using real-time RT-PCR (Taqman assay) with GAPDH RNA as endogenous control. EC50 values are calculated from experiments with 10 serial twofold dilutions of the inhibitor in triplicate. To measure cytotoxicity in replicon cells of an inhibitor, an MTS assay is performed according to the manufacturer's protocol for CellTiter 96 Aqueous One Solution Cell Proliferation Assay (Promega, Cat # G3580) three days post dosing on cells treated identically as in replicon activity assays. […] Cytotoxicity in other types of cells may be measured using the same MTS protocol.

replicon cells (1b-Con1) = assay: Replicon activity assay (replicon RNA level by real-time RT-PCR, Taqman); format: cell-based; conditions: Hepatitis C virus, HCV replicon genotype 1b; read-out: EC50 (1b) Range
Description: as §1

Structure (SMILES)	CC50 at 3 days [1] [µM]	pEC50 (replicon cells (1b-Con1))
CC(C)OC(=O)C(C)(C)CO[P@]1(=O)OC[C@H]2O[C@@H](n3ccc(=O)[nH]c3=O)[C@](C)(N)[C@@H]2O1 [Compound 15B]	> 50	< 5.00
CC(C)OC(=O)C(C)(C)CO[P@@]1(=O)OC[C@H]2O[C@@H](n3ccc(=O)[nH]c3=O)[C@](C)(C#N)[C@@H]2O1 [Compound 16A]	> 50	< 5.00
CC(C)OC(=O)C(C)(C)CO[P@]1(=O)OC[C@H]2O[C@@H](n3ccc(=O)[nH]c3=O)[C@](C)(C#N)[C@@H]2O1 [Compound 16B]	> 50	< 5.00
CC(C)OC(=O)CC(C)(C)CO[P@@]1(=O)OC[C@H]2O[C@@H](n3ccc(=O)[nH]c3=O)[C@](C)(N)[C@@H]2O1 [Compound 17A]	> 50	< 5.00
CC(C)OC(=O)CC(C)(C)CO[P@]1(=O)OC[C@H]2O[C@@H](n3ccc(=O)[nH]c3=O)[C@](C)(N)[C@@H]2O1 [Compound 17B]	> 50	< 5.00
C#C[C@]1(C)[C@@H]2O[P@@](=O)(OCC(C)(C)CC(=O)OC(C)C)OC[C@H]2O[C@H]1n1ccc(=O)[nH]c1=O [Compound 18A]	> 50	< 5.00
C#C[C@]1(C)[C@@H]2O[P@](=O)(OCC(C)(C)CC(=O)OC(C)C)OC[C@H]2O[C@H]1n1ccc(=O)[nH]c1=O [Compound 18B]	> 50	< 5.00
CC(C)OC(=O)C(C)(C)CCO[P@@]1(=O)OC[C@H]2O[C@@H](n3ccc(=O)[nH]c3=O)[C@](C)(N)[C@@H]2O1 [Compound 19A]	> 50	< 5.00
CC(C)OC(=O)C(C)(C)CCO[P@]1(=O)OC[C@H]2O[C@@H](n3ccc(=O)[nH]c3=O)[C@](C)(N)[C@@H]2O1 [Compound 19B]	> 50	< 5.00
C#C[C@]1(C)[C@@H]2O[P@@](=O)(OCCC(C)(C)C(=O)OC(C)C)OC[C@H]2O[C@H]1n1ccc(=O)[nH]c1=O [Compound 20A]	> 50	< 5.00
C#C[C@]1(C)[C@@H]2O[P@](=O)(OCCC(C)(C)C(=O)OC(C)C)OC[C@H]2O[C@H]1n1ccc(=O)[nH]c1=O [Compound 20B]	> 50	< 5.00
CC(CCO[P@@]1(=O)OC[C@H]2O[C@@H](n3ccc(=O)[nH]c3=O)[C@](C)(N)[C@@H]2O1)CC(=O)OC(C)C (some centres unmarked) [Compound 21A]	> 50	< 5.00
CC(CCO[P@]1(=O)OC[C@H]2O[C@@H](n3ccc(=O)[nH]c3=O)[C@](C)(N)[C@@H]2O1)CC(=O)OC(C)C (some centres unmarked) [Compound 21B]	> 50	< 5.00
C#C[C@]1(C)[C@@H]2O[P@@](=O)(OCC(C)CCC(=O)OC(C)C)OC[C@H]2O[C@H]1n1ccc(=O)[nH]c1=O (some centres unmarked) [Compound 22A]	> 50	< 5.00
C#C[C@]1(C)[C@@H]2O[P@](=O)(OCC(C)CCC(=O)OC(C)C)OC[C@H]2O[C@H]1n1ccc(=O)[nH]c1=O (some centres unmarked) [Compound 22B]	> 50	< 5.00
CCC(CCO[P@@]1(=O)OC[C@H]2O[C@@H](n3ccc(=O)[nH]c3=O)[C@](C)(N)[C@@H]2O1)C(=O)OC(C)C (some centres unmarked) [Compound 23A]	> 50	< 5.00
CCC(CCO[P@]1(=O)OC[C@H]2O[C@@H](n3ccc(=O)[nH]c3=O)[C@](C)(N)[C@@H]2O1)C(=O)OC(C)C (some centres unmarked) [Compound 23B]	> 50	< 5.00
CC(C)OC(=O)C(CCO[P@@]1(=O)OC[C@H]2O[C@@H](n3ccc(=O)[nH]c3=O)[C@](C)(N)[C@@H]2O1)C(C)C (some centres unmarked) [Compound 24A]	> 50	< 5.00
CC(C)OC(=O)C(CCO[P@]1(=O)OC[C@H]2O[C@@H](n3ccc(=O)[nH]c3=O)[C@](C)(N)[C@@H]2O1)C(C)C (some centres unmarked) [Compound 24B]	> 50	< 5.00
C[C@@]1(N)[C@@H]2O[P@@](=O)(OCCC3(C(=O)OC4CCCC4)CC3)OC[C@H]2O[C@H]1n1ccc(=O)[nH]c1=O [Compound 26A]	> 50	< 5.00
C[C@@]1(N)[C@@H]2O[P@](=O)(OCCC3(C(=O)OC4CCCC4)CC3)OC[C@H]2O[C@H]1n1ccc(=O)[nH]c1=O [Compound 26B]	> 50	< 5.00
CC(C)OC(=O)C1(CCO[P@@]2(=O)OC[C@H]3O[C@@H](n4ccc(=O)[nH]c4=O)[C@](C)(N)[C@@H]3O2)CC1 [Compound 27A]	> 50	< 5.00
CC(C)OC(=O)C1(CCO[P@]2(=O)OC[C@H]3O[C@@H](n4ccc(=O)[nH]c4=O)[C@](C)(N)[C@@H]3O2)CC1 [Compound 27B]	> 50	< 5.00

Structure (SMILES)	CC50 at 3 days [1] [µM]	pEC50 (replicon cells (1b-Con1))
CCOC(=O)C1(CCO[P@@]2(=O)OC[C@H]3O[C@@H](n4ccc(=O)[nH]c4=O)[C@](C)(N)[C@@H]3O2)CC1 [Compound 28A]	> 50	< 5.00
CCOC(=O)C1(CCO[P@]2(=O)OC[C@H]3O[C@@H](n4ccc(=O)[nH]c4=O)[C@](C)(N)[C@@H]3O2)CC1 [Compound 28B]	> 50	< 5.00
C[C@@]1(N)[C@@H]2OP(=O)(OCCC3(C(=O)OC4CCCC4)CCC3)OC[C@H]2O[C@H]1n1ccc(=O)[nH]c1=O (some centres unmarked) [Compound 29A]	> 50	< 5.00
C#C[C@]1(C)[C@@H]2O[P@@](=O)(OCCC(CC)C(=O)OC3CCCC3)OC[C@H]2O[C@H]1n1ccc(=O)[nH]c1=O (some centres unmarked) [Compound 30A]	> 50	< 5.00
C#C[C@]1(C)[C@@H]2O[P@](=O)(OCCC(CC)C(=O)OC3CCCC3)OC[C@H]2O[C@H]1n1ccc(=O)[nH]c1=O (some centres unmarked) [Compound 30B]	> 50	< 5.00
C#C[C@]1(C)[C@@H]2O[P@@](=O)(OCCC(CC)C(=O)OC(C)C)OC[C@H]2O[C@H]1n1ccc(=O)[nH]c1=O (some centres unmarked) [Compound 31A]	> 50	6.00 to 6.60
C#C[C@]1(C)[C@@H]2O[P@](=O)(OCCC(CC)C(=O)OC(C)C)OC[C@H]2O[C@H]1n1ccc(=O)[nH]c1=O (some centres unmarked) [Compound 31B]	> 50	< 5.00
C#C[C@]1(C)[C@@H]2O[P@@](=O)(OCCC(C(=O)OC(C)C)C(C)C)OC[C@H]2O[C@H]1n1ccc(=O)[nH]c1=O (some centres unmarked) [Compound 32A]	> 50	< 5.00
C#C[C@]1(C)[C@@H]2O[P@](=O)(OCCC(C(=O)OC(C)C)C(C)C)OC[C@H]2O[C@H]1n1ccc(=O)[nH]c1=O (some centres unmarked) [Compound 32B]	> 50	< 5.00
CC(C)OC(=O)C(CCO[P@@]1(=O)OC[C@H]2O[C@@H](n3ccc(=O)[nH]c3=O)[C@](C)(N)[C@@H]2O1)c1ccccc1 (some centres unmarked) [Compound 33A]	> 50	< 5.00
CC(C)OC(=O)C(CCO[P@]1(=O)OC[C@H]2O[C@@H](n3ccc(=O)[nH]c3=O)[C@](C)(N)[C@@H]2O1)c1ccccc1 (some centres unmarked) [Compound 33B]	> 50	< 5.00
CC(C)OC(=O)C(C)CCCO[P@@]1(=O)OC[C@H]2O[C@@H](n3ccc(=O)[nH]c3=O)[C@](C)(N)[C@@H]2O1 (some centres unmarked) [Compound 34A]	> 50	< 5.00
CC(C)OC(=O)C(C)CCCO[P@]1(=O)OC[C@H]2O[C@@H](n3ccc(=O)[nH]c3=O)[C@](C)(N)[C@@H]2O1 (some centres unmarked) [Compound 34B]	> 50	< 5.00
CC(C)OC(=O)C(C)CCOP1(=O)OC[C@H]2O[C@@H](n3cnc4c(N)ncnc43)[C@](C)(Cl)[C@@H]2O1 (some centres unmarked) [Compound 35A]	> 50	≥ 6.60
CO[C@H](CCOP1(=O)OC[C@H]2O[C@@H](n3ccc(=O)[nH]c3=O)[C@](C)(Cl)[C@@H]2O1)C(=O)OC(C)C (some centres unmarked) [Compound 37A]	> 50	6.00 to 6.60
CC(C)OC(=O)C(CCOP1(=O)OC[C@H]2O[C@@H](n3ccc(=O)[nH]c3=O)[C@](C)(Cl)[C@@H]2O1)C(=O)OC(C)C (some centres unmarked) [Compound 38A]	> 50	≥ 6.60
CC(C)OC(=O)C(C)CCOP1(=O)OC[C@H]2O[C@@H](n3ccc(=O)[nH]c3=O)[C@](C)(Cl)[C@@H]2O1 (some centres unmarked) [Compound 39A]	> 50	≥ 6.60
C#C[C@]1(C)[C@@H]2O[P@@](=O)(OC[C@H](NC(=O)OC)C(=O)OC(C)C)OC[C@H]2O[C@H]1n1ccc(=O)[nH]c1=O [Compound 40A]	> 50	< 5.00
C#C[C@]1(C)[C@@H]2O[P@](=O)(OC[C@H](NC(=O)OC)C(=O)OC(C)C)OC[C@H]2O[C@H]1n1ccc(=O)[nH]c1=O [Compound 40B]	> 50	< 5.00
COC(=O)N[C@H](CO[P@@]1(=O)OC[C@H]2O[C@@H](n3ccc(=O)[nH]c3=O)[C@](C)(C#N)[C@@H]2O1)C(=O)OC(C)C [Compound 41A]	> 50	< 5.00
COC(=O)N[C@H](CO[P@]1(=O)OC[C@H]2O[C@@H](n3ccc(=O)[nH]c3=O)[C@](C)(C#N)[C@@H]2O1)C(=O)OC(C)C [Compound 41B]	> 50	< 5.00
COC(=O)N[C@@H](CCO[P@@]1(=O)OC[C@H]2O[C@@H](n3ccc(=O)[nH]c3=O)[C@](C)(N)[C@@H]2O1)C(=O)OC(C)C [Compound 42A]	> 50	< 5.00
COC(=O)N[C@@H](CCO[P@]1(=O)OC[C@H]2O[C@@H](n3ccc(=O)[nH]c3=O)[C@](C)(N)[C@@H]2O1)C(=O)OC(C)C [Compound 42B]	> 50	< 5.00
